This passage reports inhibition and Activity results from ChEMBL document CHEMBL3745633, “Synthesis of the biotinylated anti-HIV compound BMMP and the target identification study” (Bioorg Med Chem Lett, 2016).

In assay [1] the test system is Human immunodeficiency virus 1. The experiment in a line: Antiviral activity against HIV-1 NL4-3 infected in human M8166 cells assessed as inhibition of viral replication at 20 uM after 5 days by p24 ELISA. The format is functional, organism-based. In general terms: In an ELISA, binding on a coated surface is turned into a signal by an enzyme label.
The test system of assay [2] is HEK-293T. The assay can be described thus: Binding affinity to HIV-1 NL4-3 Pr55Gag expressed in HEK293T cells by surface plasmon resonance analysis. Conditions: Human immunodeficiency virus 1.
Assay [3] deals with HEK-293T. The experiment in a line: Binding affinity to HIV-1 NL4-3 capsid protein expressed in HEK293T cells by surface plasmon resonance analysis. Conditions: Human immunodeficiency virus 1. A general note: Surface plasmon resonance follows binding to a sensor surface in real time, without labels.

Activity calls are given as the source filed them. The rule behind the calls is not given here.

Turning to `COC(=O)CCCC[C@@H]1SC[C@@H]2NC(=O)N[C@@H]21`, the inhibition result in assay [1] was “inactive”. Take `NCCCCCCc1ccnc(SCc2nc3ccccc3s2)n1`: in assay [1], the inhibition entry was “Active”. The same measure, in the same setting: the same measure for `Cc1ccnc(SCc2nc3ccccc3s2)n1`: “Active”. For `O=C(CCCC[C@@H]1SC[C@@H]2NC(=O)N[C@@H]21)NCCCCCCc1ccnc(SCc2nc3ccccc3s2)n1`, the inhibition entry in assay [1] is “Active”. The result in assay [2] and in assay [3] was inactive.
